Test results reported in article PMC8391312 (Biomedicines, 2021).

Test system: Cav1.2/1.3 channels
Assay type: cell-based, rat

## [Cl][Cd][Cl] [Cd^2+, CdCl2]
  block of current amplitude: 98 ± 0.8%
